We go through 2 molecules from ChEMBL document CHEMBL5055661, “Cell-Based Drug Discovery: Identification and Optimization of Small Molecules that Reduce c-MYC Protein Levels in Cells” (J Med Chem, 2021).

The nature of data set [1]: Reduction in cMyc expression in human COLO 320HSR cells incubated for 24 hrs by HTRF assay. It is filed as functional, cell-based. For orientation: Time-resolved FRET reads energy transfer from a long-lived donor to a nearby acceptor.
Data set [2] in a line: Permeability of the compound across artificial membrane by AMP assay. It counts as ADME. As to conditions: PAMPA; read-out: permeability. On the technique in general: The PAMPA barrier holds no transporters, so it reflects passive diffusion.
Data set [3] is described as follows: Clearance in CD1 mouse at 0.49 mg/kg, iv by LC-MS/MS analysis. It counts as ADME, organism-based. The settings on record: in vivo.
A short description of data set [4]: Half life in CD1 mouse at 0.49 mg/kg, iv by LC-MS/MS analysis. It counts as ADME, organism-based. The settings on record: in vivo.
A short description of data set [5]: Volume of distribution at steady state in CD1 mouse at 0.49 mg/kg, iv by LC-MS/MS analysis. It is filed as ADME, organism-based. The settings on record: in vivo, read-out: Vdss.
Data set [6] can be described thus: AUC (0 to inf) in CD1 mouse at 5.1 mg/kg, po by LC-MS/MS analysis. As to conditions: in vivo. It counts as ADME, organism-based. Also noted: time infinity, dose 5.1 mg/kg, route po.
Data set [7] is described as follows: Oral bioavailability in CD1 mouse at 5.1 mg/kg by LC-MS/MS analysis. It is filed as ADME, organism-based. The settings on record: in vivo.
Data set [8] in a line: Plasma protein binding in CD1 mouse at 5.1 mg/kg, po by LC-MS/MS analysis. It is filed as ADME, organism-based. As to conditions: read-out: PPB.
Data set [9] in a line: Clearance in Han Wistar rat at 1 mg/kg, iv by LC-MS/MS analysis. It counts as ADME, organism-based. The settings on record: in vivo.
Data set [10] can be described thus: Half life in Han Wistar rat at 1 mg/kg, iv by LC-MS/MS analysis. It is filed as ADME, organism-based. As to conditions: in vivo.
The nature of data set [11]: Volume of distribution at steady state in Han Wistar rat at 1 mg/kg, iv by LC-MS/MS analysis. It counts as ADME, organism-based. The settings on record: in vivo, read-out: Vdss.
Data set [12] in a line: AUC (0 to inf) in Han Wistar rat at 2.1 mg/kg, po by LC-MS/MS analysis. It counts as ADME, organism-based. Further details: time infinity, dose 2.1 mg/kg, route po. As to conditions: in vivo.
A short description of data set [13]: Oral bioavailability in Han Wistar rat at 2.1 mg/kg by LC-MS/MS analysis. It counts as ADME, organism-based. As to conditions: in vivo.
Data set [14] in a line: Plasma protein binding in Han Wistar rat at 2.1 mg/kg, po by LC-MS/MS analysis. It is filed as ADME, organism-based. As to conditions: read-out: PPB.
In data set [15] the test system is DOHH-2. Nature of the data set: Decrease in c-MYC protein level in human DOHH-2 cells incubated for 6 hrs by Western blot analysis. It counts as functional, cell-based. (Immunoblotting shows a protein as a band on a membrane.)
The test system of data set [16] is Burkitts lymphoma cell. Nature of the data set: Growth inhibition of MYC-translocated human Burkitts lymphoma cells measured after 6 days by CellTiterGlo-assay. It counts as functional. The settings on record: time 6.0 day.
Data set [17] concerns DOHH-2. Description: Reduction in MYC mRNA level in po dosed mouse xenografted with human DOHH-2 cells by qRT-PCR analysis. It is filed as functional, organism-based. As to conditions: dose 15-100 mg/kg.
For data set [18], the system named is DOHH-2. Nature of the data set: Anticancer activity against human DOHH-2 cells assessed as tumor growth inhibition at 30 mg/kg, po qd measured after 21 days. It is filed as functional. The settings on record: DOHH-2, 504 h, time 21 day, read-out: TGI.
Data set [19] has as its system DOHH-2. Nature of the data set: Anticancer activity against human DOHH-2 cells assessed as tumor growth inhibition at 45 mg/kg, po qd measured after 21 days. It is filed as functional. As to conditions: DOHH-2, 504 h, time 21 day, read-out: TGI.
The test system of data set [20] is DOHH-2. Nature of the data set: Anticancer activity against human DOHH-2 cells assessed as tumor growth inhibition at 30 mg/kg, po qd measured after 28 days. It is filed as functional. The settings on record: DOHH-2, 672 h, time 28 day, read-out: TGI.
The test system of data set [21] is DOHH-2. Description: Anticancer activity against human DOHH-2 cells assessed as reduction in MYC mRNA expression in tumor at 30 mg/kg, po qd measured after 28 days by qRT-PCR analysis. It counts as functional, organism-based. The settings on record: time 28.0 day.
Data set [22] concerns Mus musculus. Nature of the data set: Toxicity in mouse assessed as decrease in body weight at 30 mg/kg, po qd measured after 28 days. It is filed as organism-based. The settings on record: in vivo, 672 h, time 28 day.
Data set [23] in a line: Clearance in CD1 mouse at 0.5 mg/kg, iv by LC-MS/MS analysis. It counts as ADME, organism-based. The settings on record: in vivo.
Data set [24] can be described thus: Half life in CD1 mouse at 0.5 mg/kg, iv by LC-MS/MS analysis. As to conditions: in vivo. It counts as ADME, organism-based.
Data set [25] in a line: Volume of distribution at steady state in CD1 mouse at 0.5 mg/kg, iv by LC-MS/MS analysis. It is filed as ADME, organism-based. As to conditions: in vivo, read-out: Vdss.
The nature of data set [26]: Clearance in CD1 mouse at 0.51 mg/kg, iv by LC-MS/MS analysis. It counts as ADME, organism-based. As to conditions: in vivo.
A short description of data set [27]: Half life in CD1 mouse at 0.51 mg/kg, iv by LC-MS/MS analysis. It is filed as ADME, organism-based. As to conditions: in vivo.
The nature of data set [28]: Volume of distribution at steady state in CD1 mouse at 0.51 mg/kg, iv by LC-MS/MS analysis. It is filed as ADME, organism-based. As to conditions: in vivo, read-out: Vdss.
Data set [29] can be described thus: Cmax in CD1 mouse at 5 mg/kg, po by LC-MS/MS analysis. It is filed as ADME, organism-based. Further details: dose 5 mg/kg, route po. As to conditions: in vivo.
A short description of data set [30]: AUC (0 to inf) in CD1 mouse at 5 mg/kg, po by LC-MS/MS analysis. It counts as ADME, organism-based. Also noted: time infinity, dose 5 mg/kg, route po. The settings on record: in vivo.
A short description of data set [31]: Oral bioavailability in CD1 mouse at 5 mg/kg by LC-MS/MS analysis. It counts as ADME, organism-based. The settings on record: in vivo.
Data set [32] is described as follows: Plasma protein binding in CD1 mouse at 5 mg/kg, po by LC-MS/MS analysis. It is filed as ADME, organism-based. The settings on record: read-out: PPB (converted).
Data set [33] can be described thus: Cmax in Han Wistar rat at 2 mg/kg, po by LC-MS/MS analysis. It is filed as ADME, organism-based. Also noted: dose 2 mg/kg, route po. The settings on record: in vivo.
A short description of data set [34]: AUC (0 to inf) in Han Wistar rat at 2 mg/kg, po by LC-MS/MS analysis. It is filed as ADME, organism-based. Further details: time infinity, dose 2 mg/kg, route po. The settings on record: in vivo.
Data set [35] can be described thus: Oral bioavailability in Han Wistar rat at 2 mg/kg by LC-MS/MS analysis. It counts as ADME, organism-based. As to conditions: in vivo.
Data set [36] can be described thus: Plasma protein binding in Han Wistar rat at 2 mg/kg, po by LC-MS/MS analysis. It is filed as ADME, organism-based. The settings on record: read-out: PPB (converted).

Calls of active or inactive are those of the source.

As for `CCNC(=O)c1cc(OC)c2c(c1)nc(-c1ccc(N3[C@@H](C)CC[C@@H]3C)nc1)n2C[C@@H]1CN(C)CCO1`, in data set [1], the EC50 (usually the concentration needed to bring the measured effect to its halfway point) was 79.4 nM. Also, the Papp in data set [2] was found to be 20.5 ×10⁻⁶ cm/s. Besides, the clearance (commonly a measure of how efficiently the substance is removed, as volume per time) is 25 mL/min/kg in data set [3], 22 mL/min/kg in data set [9] and 26 mL/min/kg in data set [23]. Besides, the half-life – broadly, the time needed for the level to fall by half in the phase considered – in [4] is 0.75 h; in [10] it was 3.6 h; in data set [24], 1.9 h. Besides, the Vd was found to be 0.73 L/kg in data set [5], 2.6 L/kg in data set [11] and 3.4 L/kg in data set [25]. For the same molecule, the results for the AUC(0-inf) in data set [6] and in [12] were 1720 ng·h/mL and 669 ng·h/mL, respectively. Further, the bioavailability (commonly the share of a dose that reaches the circulation, judged against a reference dose that is usually intravenous) in [7] stood at 35%; in [13] it was 40%. For the same molecule, the fraction unbound was found to be 0.01 in data set [8] and 0.09 in data set [14]. The outcome in data set [15], in data set [17] and in data set [21] was Active. Besides, the “growth inhibition (GI)” value in data set [16] was “Active”. The inhibition in vivo at 30 mg/kg in data set [18] is 58%; in [20], 82%. Besides, in data set [19], the inhibition in vivo at 45 mg/kg amounted to 89%. Also, in data set [22], the Activity result is on record as “Non-Toxic”.

`COc1cc(C(N)=O)c(F)c2nc(-c3ccc(N4CCC[C@@H]4C)nc3)n(C[C@@H]3CN(C)CCO3)c12` showed a half-maximal effective concentration (EC50) in [1] of 63.1 nM. Besides, the clearance in [9] worked out at 14 mL/min/kg; in [26], 24 mL/min/kg. For the same molecule, the half-life in [10] is 6.4 h; in data set [27] it was 0.55 h. For the same molecule, the figures for the Vd in data set [11] and in [28] were 2.5 L/kg and 0.88 L/kg, respectively. The values for the highest concentration (Cmax) in data set [29] and in data set [33] were 380 ng/mL and 500 ng/mL, respectively. Also, the total exposure AUC(0-inf) (as a rule, the area under the concentration-time curve extrapolated to infinity) in data set [30] was 1240 ng·h/mL; in data set [34], 4300 ng·h/mL. Moreover, the figures for the bioavailability in data set [31] and in data set [35] were 43% and 100%, respectively. The results for the fraction unbound in data set [32] and in data set [36] were 0.03 and 0.04, respectively.
